Results taken from patent US8481546B2, “CGRP receptor antagonist” (Bristol-Myers Squibb Company, priority 2010, dated 2013).

Key:
[1] = target: T1, CGRP receptor, SK-N-MC cell membrane preparation (Homo sapiens, UniProt O60894+Q16602); test: Saturation binding of [125I]CGRP with or without Compound I
T1 construct: endogenous in cells; host or cells: SK-N-MC human neuroblastoma cells (membrane homogenate or attached whole cells)
Protocol: The nature of the interaction between the endogenous CGRP peptide and Compound I is studied in detail using saturation binding experiments. Briefly, the binding of [^125I]CGRP to the SK-N-MC cell membrane preparation is measured with increasing concentration of [^125I]CGRP without (control condition) or in the presence of (test conditions) one of the two concentrations (30 pM and 100 pM) of Compound I. Saturation data are analyzed with hyperbolic equations using Kell software (Biosoft, Cambridge, UK) to estimate dissociation constant (Kd) and the maximum number of binding sites (Bmax). The impact of the addition of Compound I to the binding parameters (Kd, Bmax) of [^125I]CGRP is measured and compared.

[2] = tested on: CGRP-induced dilation of ex vivo human intracranial arteries; test: Schild analysis: inhibition of CGRP concentration-response curve in ex vivo human intracranial artery
Protocol: To assess functional antagonism against a range of CGRP concentrations, Compound I is pre-incubated with individual artery rings in the tissue bath and then a CGRP concentration-response curve is generated to achieve complete dilation (using multiple agonist and multiple antagonist doses). Higher concentrations of antagonist produce a ‘right-shift’ in the CGRP concentration-response curve, requiring greater concentrations of agonist to overcome the presence of antagonist and achieve full dilation. In short, wire mounted artery rings are pre-incubated with antagonist, then contracted with KCl (to mimic endogenous tone), and followed by addition of increasing concentrations of CGRP to achieve full relaxation.
Each wire mounted artery ring is pre-incubated for 30 min with a single concentration (0.1-30 nM) of the antagonist Compound I, then contracted with 10 mM KCl (to mimic endogenous tone), followed by addition of increasing concentrations of CGRP to achieve full relaxation. The KCl contraction is allowed to stabilize, such that total antagonist pretreatment time is approximately 45 min prior to application of CGRP.

[3] = tested on: CGRP-induced increases in marmoset facial blood flow; test: Marmoset facial blood flow; type: in vivo, common marmosets (Callithrix jacchus)
Protocol: To evaluate the in vivo efficacy of novel CGRP receptor antagonists, marmosets receive a series of four intravenous injections of hαCGRP (at 45 min intervals). The first serves as a baseline control, and is followed by subcutaneous delivery of test article. The subsequent three CGRP challenges provide an assessment of functional CGRP antagonism in vivo.
Adult male and female common marmosets (Callithrix jacchus) weighing 350-650 g serve as subjects.
Animals are anesthetized by isoflurane inhalation in an induction chamber (4-5% rapid induction, maintained with 1-2.5%; Solomon et al., 1999). Anesthesia is maintained by delivering a constant supply of air:oxygen (50:50) and isoflurane via intubation and ventilation (with blood gas monitoring). Body temperature is maintained at 38±0.5° C. by placement on an automated temperature controlled surface with rectal probe. A small area of fur (approx. 1.5 cm square) is removed from one or both sides of the face by application of a depilatory cream and/or shaving. Surgical areas are clipped and prepared with betadine. An IV line is placed in the saphenous vein for the administration of test compounds and the CGRP receptor agonist hαCGRP. Additionally this IV line provides for withdrawal of blood samples (max 2.5 ml, 10%) for blood gas monitoring and analysis of compound plasma levels. A solution of 5% dextrose is administered IV in order to maintain blood sugar levels. Anesthesia depth is monitored by measuring blood pressure and heart rate using a non-invasive arm cuff method and a pulse oximeter, respectively. […] Microvascular blood flow is monitored by attaching a self adhesive laser Doppler flow probe to the facial skin. The probe records the number of red blood cells crossing the path of two laser beams, multiplied by their velocity (reported as changes in flux).
Test compounds are administered SC (0.1-0.6 ml/kg) in the nape of the neck. The CGRP-receptor agonist, hαCGRP is delivered IV (1 ml/kg) at a dose of 10 μg/kg.
To assess in vivo efficacy and duration of action, a control increase in facial blood flow is induced by administration of hαCGRP (10 μg/kg IV) 30 min prior (−0.5 hr) to drug delivery. Compound I is then administered at time zero (0 min) and repeat hαCGRP are delivered at 45 min intervals for ˜2 hr (data collected at 0.25, 1 and 1.75 hrs post-dose). Compound I is dosed at 0.003, 0.01 and 0.03 mg/kg, SC. Plasma samples are obtained just before each hαCGRP administration. Following testing, animals are returned to the transport cage which is placed on a temperature controlled surface that keep the animals warm until fully awake and ambulatory. Animals may be tested again after a 14-21 day rest and washout period.

Solution state stability = type: physicochemical
Protocol: The solution state stability of Compound I was evaluated as a function of temperature, pH, high intensity light (HIL), buffer concentration, and drug concentration.
Succinate buffer was used for all solutions. For samples exposed to light, a photostability chamber was used in accordance with ICH guidelines (1.2 million lux hour exposure to visible light and 200 watt hour/m^2 to UV). Analyses were performed at 4, 8 and 12 weeks.

[4] = in the presence of 30 pM Compound I
[5] = in the presence of 100 pM Compound I
[6] = marmoset, efficacy vs. exposure
[7] = Sample A: pH 4, 40 C, 0.1 mg/ml drug, 0.05 M succinate buffer
[8] = Sample B: pH 5, 25 C, 0.1 mg/ml drug, 0.05 M succinate buffer
[9] = Sample C: pH 5, 25 C/light, 0.1 mg/ml drug, 0.05 M succinate buffer
[10] = Sample D: pH 5, 60 C, 0.1 mg/ml drug, 0.05 M succinate buffer
[11] = Sample E: pH 5, 40 C, 0.1 mg/ml drug, 0.05 M succinate buffer
[12] = Sample F: pH 6, 40 C, 0.1 mg/ml drug, 0.05 M succinate buffer
[13] = Sample G: pH 4, 40 C, 40 mg/ml drug, 0.05 M succinate buffer
[14] = Sample H: pH 5, 40 C, 40 mg/ml drug, 0.05 M succinate buffer
[15] = Sample I: pH 6, 40 C, 40 mg/ml drug, 0.05 M succinate buffer
[16] = Sample J: pH 5, 40 C, 0.1 mg/ml drug, 0.01 M succinate buffer

T1 sequence (Q16602 23-461): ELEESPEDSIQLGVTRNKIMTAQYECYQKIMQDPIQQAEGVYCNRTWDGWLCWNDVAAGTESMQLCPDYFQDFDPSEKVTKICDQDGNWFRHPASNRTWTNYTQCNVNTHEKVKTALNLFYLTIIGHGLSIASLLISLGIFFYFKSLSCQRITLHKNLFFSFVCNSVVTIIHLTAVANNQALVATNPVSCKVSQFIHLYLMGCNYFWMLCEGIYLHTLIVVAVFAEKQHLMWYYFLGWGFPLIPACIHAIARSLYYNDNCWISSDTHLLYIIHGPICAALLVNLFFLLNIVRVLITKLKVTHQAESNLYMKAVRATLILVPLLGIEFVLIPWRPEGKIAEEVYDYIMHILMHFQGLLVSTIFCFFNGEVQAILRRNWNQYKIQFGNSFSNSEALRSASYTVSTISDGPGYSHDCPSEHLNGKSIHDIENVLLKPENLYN
T1 sequence (O60894 27-148): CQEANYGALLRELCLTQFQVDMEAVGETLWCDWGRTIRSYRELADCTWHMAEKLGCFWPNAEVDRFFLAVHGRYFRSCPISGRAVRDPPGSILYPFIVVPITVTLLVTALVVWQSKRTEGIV

Cc1cc(C[C@@H](NC(=O)N2CCC(c3cc4ccccc4[nH]c3=O)CC2)C(=O)N2CCN(C3CCN(C)CC3)CC2)cc2cn[nH]c12 [Compound I, (R)—N-(3-(7-methyl-1H-indazol-5-yl)-1-(4-(1-methylpiperidin-4-yl)piperazin-1-yl)-1-oxopropan-2-yl)-4-(2-oxo-1,2-dihydroquinolin-3-yl)piperidine-1-carboxamide]
Bmax of [125I]CGRP [1, 4]: 112.1 ± 20.6 fmol/mg protein
Kd of [125I]CGRP [1, 4]: 0.058 ± 0.0196 nM
Bmax of [125I]CGRP [1, 5]: 146.8 ± 6.4 fmol/mg protein
Kd of [125I]CGRP [1, 5]: 0.1297 ± 0.0319 nM
Kb [2]: 0.091 nM
inhibition of CGRP-induced increases in facial blood flow ([3]; 0.003 mg/kg SC, at 0.25 hr): 20%
inhibition of CGRP-induced increases in facial blood flow ([3]; 0.003 mg/kg SC, later test times): no effect
inhibition of CGRP-induced increases in facial blood flow ([3]; 0.01 mg/kg SC, across all post-dose test times): 35-40%
inhibition of CGRP-induced increases in facial blood flow ([3]; 0.03 mg/kg SC, at 0.25, 1 and 1.75 hr post-dose): 53-80%
plasma levels associated with maximal efficacy [3, 6]: ≥ 25 nM
plasma levels associated with significant in vivo efficacy [3, 6]: ≥ 8 nM
Area percent of Deg A at twelve weeks (Solution state stability; [7]): 2.0 area percent
Area percent of Deg C at twelve weeks (Solution state stability; [7]): 10.5 area percent
Area percent of Deg A at twelve weeks (Solution state stability; [8]): .5 area percent
Area percent of Deg B at twelve weeks (Solution state stability; [8]): 0.1 area percent
Area percent of Deg A at twelve weeks (Solution state stability; [9]): 16.9 area percent
Area percent of Deg B at twelve weeks (Solution state stability; [9]): 2.9 area percent
Area percent of Deg C at twelve weeks (Solution state stability; [9]): 2.8 area percent
Area percent of Deg D at twelve weeks (Solution state stability; [9]): 5.2 area percent
Area percent of Deg E at twelve weeks (Solution state stability; [9]): 1.0 area percent
Area percent of Deg F at twelve weeks (Solution state stability; [9]): 7.7 area percent
Area percent of Deg I at twelve weeks (Solution state stability; [9]): 5.7 area percent
Area percent of Deg A at twelve weeks (Solution state stability; [10]): 1.2 area percent
Area percent of Deg C at twelve weeks (Solution state stability; [10]): 55.0 area percent
Area percent of Deg A at twelve weeks (Solution state stability; [11]): 1.9 area percent
Area percent of Deg B at twelve weeks (Solution state stability; [11]): 0.2 area percent
Area percent of Deg E at twelve weeks (Solution state stability; [11]): .1 area percent
Area percent of Deg A at twelve weeks (Solution state stability; [12]): .4 area percent
Area percent of Deg B at twelve weeks (Solution state stability; [12]): 0.1 area percent
Area percent of Deg E at twelve weeks (Solution state stability; [12]): .1 area percent
Area percent of Deg A at twelve weeks (Solution state stability; [13]): 4.9 area percent
Area percent of Deg E at twelve weeks (Solution state stability; [13]): 3.5 area percent
Area percent of Deg G at twelve weeks (Solution state stability; [13]): 0.1 area percent
Area percent of Deg H at twelve weeks (Solution state stability; [13]): .1 area percent
Area percent of Deg J at twelve weeks (Solution state stability; [13]): 0.1 area percent
Area percent of Deg A at twelve weeks (Solution state stability; [14]): 1.2 area percent
Area percent of Deg B at twelve weeks (Solution state stability; [14]): 0.1 area percent
Area percent of Deg E at twelve weeks (Solution state stability; [14]): 0.0 area percent
Area percent of Deg G at twelve weeks (Solution state stability; [14]): 0.1 area percent
Area percent of Deg J at twelve weeks (Solution state stability; [14]): 0.0 area percent
Area percent of Deg A at twelve weeks (Solution state stability; [15]): .2 area percent
Area percent of Deg B at twelve weeks (Solution state stability; [15]): 0.1 area percent
Area percent of Deg C at twelve weeks (Solution state stability; [15]): 0.0 area percent
Area percent of Deg E at twelve weeks (Solution state stability; [15]): 0.0 area percent
Area percent of Deg G at twelve weeks (Solution state stability; [15]): 0.1 area percent
Area percent of Deg J at twelve weeks (Solution state stability; [15]): 0.1 area percent
Area percent of Deg A at twelve weeks (Solution state stability; [16]): 1.1 area percent
Area percent of Deg B at twelve weeks (Solution state stability; [16]): 0.1 area percent
Area percent of Deg E at twelve weeks (Solution state stability; [16]): .1 area percent
Area percent of Deg H at twelve weeks (Solution state stability; [16]): 0.5 area percent
degradation after 12 weeks at 40 C (Solution state stability; condition I in Table 2: pH 6, 40 C, 40 mg/ml drug, 0.05 M buffer): 0.3%
